Measured values: article PMC11844072, “Novel 5,6-dichlorobenzimidazole derivatives as dual BRAFWT and BRAFV600E inhibitors: design, synthesis, anti-cancer activity and molecular dynamics simulations” (BMC Chemistry, 2025)

Assays:
Assay in all cases: NCI 60 single concentration growth inhibition
Format in all cases: cell-based, human
786-0 = details: Homo sapiens, 786-0, Renal cancer, read-out: GI%
Outline: (§1)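 Read-out is SRB absorbance at 515 nm after TCA fixation (10% for adherent lines, 16% for suspension lines). Drugs were applied for 48 h following a 24 h plating period. Growth percentages came from time-zero, control and treated absorbances.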

A498 = details: Homo sapiens, A498, Renal cancer, read-out: GI%
Outline: as §1

A549/ATCC = details: Homo sapiens, Non-small cell lung cancer, read-out: GI%
Outline: as §1

CAKI-1 = details: Homo sapiens, CAKI-1, Renal cancer, read-out: GI%
Outline: as §1

CCRF-CEM = details: Homo sapiens, Leukemia, read-out: GI%
Outline: as §1

EKVX = details: Homo sapiens, Non-small cell lung cancer, read-out: GI%
Outline: as §1

HCT-116 = details: Homo sapiens, HCT-116, Colon cancer, read-out: GI%
Outline: as §1

HL-60(TB) = details: Homo sapiens, Leukemia, read-out: GI%
Outline: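 Suspension cells such as leukaemia lines are fixed with 80% TCA added to settled cells, to 16% final, while other lines are fixed at 10% TCA. Both are then SRB-stained after 48 h of drug exposure at 37 °C.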

HOP-62 = details: Homo sapiens, HOP-62, Non-small cell lung cancer, read-out: GI%
Outline: as §1

HS 578T = details: Homo sapiens, Breast cancer, read-out: GI%
Outline: as §1

M14 = details: Homo sapiens, M14, Melanoma, read-out: GI%
Outline: as §1

MDA-MB-435 = details: Homo sapiens, MDA-MB-435, Melanoma, read-out: GI%
Outline: as §1

MOLT-4 = details: Homo sapiens, MOLT-4, Leukemia, read-out: GI%
Outline: (§2)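 Growth measured by sulforhodamine B protein staining (515 nm) after 48 h drug exposure at 37 °C, following 24 h plating in RPMI 1640 with 5% FBS and 2 mM L-glutamine. Compounds first tested at one 10 µM dose, then five-dose series (10-fold or ½ log steps); percent growth relative to time-zero and untreated wells.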

NCI-H226 = details: Homo sapiens, NCI-H226, Non-small cell lung cancer, read-out: GI%
Outline: as §1

NCI-H23 = details: Homo sapiens, NCI-H23, Non-small cell lung cancer, read-out: GI%
Outline: as §1

OVCAR-5 = details: Homo sapiens, OVCAR-5, Ovarian cancer, read-out: GI%
Outline: as §1

RPMI-8226 = details: Homo sapiens, RPMI-8226, Leukemia, read-out: GI%
Outline: as §1

SF-268 = details: Homo sapiens, SF-268, CNS cancer, read-out: GI%
Outline: as §1

SF-295 = details: Homo sapiens, SF-295, CNS cancer, read-out: GI%
Outline: as §1

SK-MEL-2 = details: Homo sapiens, SK-MEL-2, Melanoma, read-out: GI%
Outline: as §1

SR = details: Homo sapiens, Leukemia, read-out: GI%
Outline: as §2

UACC-257 = details: Homo sapiens, UACC-257, Melanoma, read-out: GI%
Outline: as §1

COC(=O)COc1ccc(C=NNC(=O)Cn2c(-c3ccc(OC)cc3)nc3cc(Cl)c(Cl)cc32)cc1OC [Compound 10p, Methyl-2-(4-((2-(2-(5,6-dichloro-2-(4-methoxyphenyl)-1H-benzo[d]imidazol-1-yl)acetyl)hydrazono)methyl)-2-methoxyphenoxy)acetate]
inhibition at 10 µM (786-0): 162% | inhibition at 10 µM (A498): < 5% | inhibition at 10 µM (A549/ATCC): < 5% | inhibition at 10 µM (CAKI-1): 16.5% | inhibition at 10 µM (CCRF-CEM): 21.1% | inhibition at 10 µM (EKVX): 18.9% | inhibition at 10 µM (HCT-116): 25.1% | inhibition at 10 µM (HL-60(TB)): < 5% | inhibition at 10 µM (HOP-62): < 5% | inhibition at 10 µM (HS 578T): 118% | inhibition at 10 µM (M14): < 5% | inhibition at 10 µM (MDA-MB-435): 31.9% | inhibition at 10 µM (MOLT-4): 13.7% | inhibition at 10 µM (NCI-H226): < 5% | inhibition at 10 µM (NCI-H23): < 5% | inhibition at 10 µM (OVCAR-5): < 5% | inhibition at 10 µM (RPMI-8226): 15.7% | inhibition at 10 µM (SF-268): < 5% | inhibition at 10 µM (SF-295): < 5% | inhibition at 10 µM (SK-MEL-2): 24.1% | inhibition at 10 µM (SR): 92.8% | inhibition at 10 µM (UACC-257): 22.7%
